The term IC50 denotes the concentration that inhibits the measured activity by half.

These results are taken from patent US10106510B2, “Substituted isoxazoles for treating cancer” (EPIZYME, INC., priority 2014, dated 2018).

In experiment [1] the target is T1, SMYD3 (Homo sapiens (Human), UniProt Q9H7B4). Put plainly: SMYD3 biochemical assay (SMYD3 enzyme assay on MEKK2 protein substrate, scintillation proximity assay). The note with it: 3H-SAM, SPA, IC50 values are an average of n = 1 to n = 50, read-out: SMYD3 Biochem IC50. An excerpt: S-adenosylmethionine (SAM), S-adenosylhomocysteine (SAH), Tris, Tween20, dimethylsulfoxide (DMSO), bovine skin gelatin (BSG), and Tris(2-carboxyethyl)phosphine hydrochloride solution (TCEP) were purchased from Sigma-Aldrich at the highest level of purity possible. ^3H-SAM was purchase from American Radiolabeled Chemicals with a specific activity of 80 Ci/mmol. 384-well opaque white OptiPlates and SPA beads (Perkin Elmer, catalog # RPNQ0013) were purchased from PerkinElmer.
N-terminally GST-tagged MEKK2 (MAP3K2) protein corresponding to reference sequence AAF63496.3 was purchased from Life Technologies (catalog # PV4010). […] Protein identity was confirmed by MS/MS analysis after proteolytic digestion. The protein sequence used was:
Full-length human SMYD3 isoform 1 (BAB86333) was inserted into a modified pET21b plasmid containing a His6 tag and TEV and SUMO cleavage sites. Because two common variants of SMYD3 exist in the population, site directed mutagenesis was subsequently performed to change amino acid 13 from an asparagine to a lysine, resulting in plasmid pEPZ533.
E. coli (BL21 codonplus RIL strain, Stratagene) were transformed with plasmid pEPZ553 by mixing competent cells and plasmid DNA and incubating on ice for 30minutes followed by heat shock at 42° C. for 1 minute and cooling on ice for 2 minutes. Transformed cells were grown and selected on LB agar with 100 μg/mL ampicillin and 17 μg/mL chloramphenicol at 37° C. overnight. A single clone was used to inoculate 200 mL of LB medium with 100 μg/mL ampicillin and 17 μg/mL chloramphenicol and incubated at 37° C. on an orbital shaker at 180 rpm. Once in log growth, the culture was diluted 1:100 into 2 L of LB medium and grown until OD600 was about 0.3 after which the culture was incubated at 15° C. and 160 rpm. Once OD600 reached about 0.4, IPTG was added to a final concentration of 0.1 mM and the cells were grown overnight at 15° C. and 160 rpm. Cells were harvested by centrifugation at 8000 rpm, for 4 minutes at 4° C. and stored at −80° C. for purification.
The column was washed with Buffer B (Buffer A plus 20 mM imidazole) and His-tagged SMYD3 was eluted with Buffer C (Buffer A plus 300 mM imidazole). The His tag, TEV and SUMO cleavage sites were removed generating native SMYD3 by addition of ULP1 protein at a ratio of 1:200 (ULP1:SMYD3). Imidazole was removed by dialysis overnight in Buffer A. The dialyzed solution was applied to a second Nickel column and the native SMYD3 protein was collected from the column flow-through. The flow-through was dialyzed in Buffer D (25 mM Tris, 5% glycerol, 5 mM β-mercaptoethanol, 50 mM NaCl, pH7.8) and ULP1 was removed using a Q sepharose fast flow column.
General Procedure for SMYD3 Enzyme Assays on MEKK2 Protein Substrate
The assays were all performed in a buffer consisting of 25 mM Tris-Cl pH 8.0, 1 mM TCEP, 0.005% BSG, and 0.005% Tween 20, prepared on the day of use. Compounds in 100% DMSO (1 ul) were spotted into a 384-well white opaque OptiPlate using a Bravo automated liquid handling platform outfitted with a 384-channel head (Agilent Technologies). DMSO (1 ul) was added to Columns 11, 12, 23, 24, rows A-H for the maximum signal control and 1 ul of SAH, a known product and inhibitor of SMYD3, was added to columns 11, 12, 23, 24, rows I-P for the minimum signal control. A cocktail (40 ul) containing the SMYD3 enzyme was added by Multidrop Combi (Thermo-Fisher). The compounds were allowed to incubate with SMYD3 for 30 min at room temperature, then a cocktail (10 ul) containing SAM and MEKK2 was added to initiate the reaction (final volume=51 ul).
A general note: In a scintillation proximity assay essentially only radioactivity close to the scintillant gives light.

Experiment [2] addresses T1, SMYD3. Put plainly: SMYD3 cell assay (Trimethyl-MEKK2 In-Cell Western in 293T/17 cells). The note with it: 293T/17 cells transfected with MEKK2-flag and SMYD3, trimethyl-MEKK2 In-Cell Western, 24 hours, top concentration 40 μM; average of n = 1 to n = 50. Format: cell-based. An excerpt: Trimethyl-MEKK2-In-Cell Western Assay
293T/17 adherent cells were purchased from ATCC (American Type Culture Collection), Manassas, Va., USA. MEM/Glutamax medium, Optimem Reduced Serum medium, penicillin-streptomycin, 0.05% trypsin and 1×D-PBS were purchased from Life Technologies, Grand Island, N.Y., USA. PBS-10× was purchased from Ambion, Life Technologies, Grand Island, N.Y., USA. PBS with Tween 20 (PBST (10×)) was purchased from KPL, Gaithersburg, Md., USA. Tet System FBS-approved FBS US Source was purchased from Clontech, Mountain View, Calif., USA. Odyssey blocking buffer, 800 CW goat anti-rabbit IgG (H+L) antibody, 680 CW Goat anti-mouse IgG (H+L) and Licor Odyssey infrared scanner were purchased from Licor Biosciences, Lincoln, Nebr., USA. Tri-methyl-Lysine [A260]-MEKK2 antibody, MEKK2 and SMYD3 plasmids were made at Epizyme. Anti-flag monoclonal mouse antibody was purchased from Sigma, St. Louis, Mo., USA. Methanol was purchased from VWR, Franklin, Mass., USA. 10%) Tween 20 was purchased from KPL, Inc., Gaithersburg, Md., USA. Fugene was purchased from Promega, Madison, Wis., USA. The Biotek ELx405 was purchased from BioTek, Winooski, Vt., USA. The multidrop combi was purchased from Thermo Scientific, Waltham, Mass., USA.
293T/17 adherent cells were maintained in growth medium (MEM/Glutamax medium supplemented with 10% v/v Tet System FBS and cultured at 37° C. under 5% CO2.
Cell Treatment, In Cell Western (ICW) for Detection of Trimethyl-Lysine-MEKK2 and MEKK2
293T/17 cells were seeded in assay medium at a concentration of 33,333 cells per cm^2 in 30 mL medium per T150 flask and incubated at 37° C. under 5% CO2. Plasmids were prepared for delivery to cells by first mixing 1350 μL Opti-MEM with Fugene (81 μL) in a sterile Eppendorf and incubated for five minutes at room temperature (RT). MEKK2-flag (13.6 ug/T150) MEKK2 p3XFlag-CMV-14 with C-3XFlag and SMYD3 (0.151 ug/T150) SMYD3 p3XFlag-CMV-14 without C-3XFlag plasmids were aliquotted to a 1.7 mL sterile microfuge tube. The gene ID for MEKK2 and SMYD3 is NM_006609.3 and Q9H7B4, respectively. Entire volume of Opti-MEM/Fugene mixture was then added to a microfuge tube containing DNA plasmid, mixed and then incubated××15 minutes at RT. The medium on the 293T/17 cells was refreshed, and the DNA/Fugene complex is added aseptically to each flask, rocked gently, and incubated at 37 C for 5 hours. Medium was then removed, and cells were washed once with PBS in the flask. Trypsin 0.05% (3 mL) was added and cells incubated for three minutes. Room temperature MEM+10% Tet system FBS was added and cells were mixed gently, and counted using the Vi-cell. Cells were seeded at 100,000 cells/mL in 50 μL MEM/10% Tet FBS/Pen/Strep to a 384 well black/clear poly-D-lysine coated plate containing test agent diluted in DMSO. The final top concentration of test compound was 40 μM. […] Plates were incubated ×30 minutes at RT in low-airflow area, followed by incubation at 37° C. under 5% CO2 for 24 hours. Medium was aspirated from all wells of assay plates prior to fixation and permeabilization with ice cold (−20° C.) methanol (90 μL/well) for ten minutes. Plates were rinsed with PBS three times on BioTek ELx405. PBS was removed with a final aspiration, and Odyssey blocking buffer (50 μL/well) was added to each well and incubated for one hour at RT. Primary antibody solution was prepared (anti-trimethyl-MEKK2 at 1:600 dilution plus mouse anti-flag antibody at 1:10,000 dilution in diluent (Odyssey Blocking buffer+0.1% Tween 20)) and 20 μL per well was dispensed using the Multidrop Combi. Assay plates were then sealed with foil, and incubated overnight at 4° C. Plates were washed five times with PBS-Tween (IX) on Biotek ELx405 and blotted on paper towel to remove excess reagent. […]

Bounds are passed on as bounds.

T1 sequence (Q9H7B4 whole entry): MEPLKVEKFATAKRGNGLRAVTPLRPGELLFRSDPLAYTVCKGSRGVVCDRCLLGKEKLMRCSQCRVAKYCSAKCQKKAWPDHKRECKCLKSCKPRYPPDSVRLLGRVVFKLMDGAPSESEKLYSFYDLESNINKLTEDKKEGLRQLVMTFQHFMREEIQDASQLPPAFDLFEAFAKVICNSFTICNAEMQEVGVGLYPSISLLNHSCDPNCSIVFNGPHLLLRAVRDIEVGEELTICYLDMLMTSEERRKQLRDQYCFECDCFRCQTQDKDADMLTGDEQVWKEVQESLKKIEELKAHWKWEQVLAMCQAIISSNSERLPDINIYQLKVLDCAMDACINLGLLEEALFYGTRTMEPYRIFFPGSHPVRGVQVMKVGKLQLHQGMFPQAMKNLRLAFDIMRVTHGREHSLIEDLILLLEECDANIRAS

Turning to `C[C@@H](N)CC(=O)N[C@H]1CC[C@H](NC(=O)c2cc(C3CC3)on2)CC1` [compound 5, N-((1R,4r)-4-((R)-3-aminobutanamido)cyclohexyl)-5-cyclopropylisoxazole-3-carboxamide], the IC50 at SMYD3 [1] was 400 nM; against SMYD3 [2], 10100 nM.

With `N[C@H]1CC[C@H](C(=O)N[C@H]2CC[C@H](NC(=O)c3cc(C4CC4)on3)CC2)C1` [compound 32, N-((1S,4r)-4-((1S,3S)-3-aminocyclopentane-1-carboxamido)cyclohexyl)-5-cyclopropylisoxazole-3-carboxamide], the IC50 on SMYD3 [1] amounted to 562 nM; against SMYD3 [2], 5150 nM.

For `NCCCN(C(=O)CCN)[C@H]1CC[C@H](NC(=O)c2cc(C3CC3)on2)CC1` [compound 33, N-((1r,4r)-4-(3-amino-N-(3-aminopropyl)propanamido)cyclohexyl)-5-cyclopropylisoxazole-3-carboxamide], the IC50 on SMYD3 [1] was 428 nM; against SMYD3 [2], greater than 40000 nM.

As for `CCc1cc(C(=O)N[C@H]2CC[C@H](NC(=O)C[C@@H](C)N)C[C@H]2CC)no1` (mixture of isomers) [Cpd. No. 6, Mixture of N-((1S,2R,4S)-4-((R)-3-aminobutanamido)-2-ethylcyclohexyl)-5-ethylisoxazole-3-carboxamide and N-((1R,2S,4R)-4-((R)-3-aminobutanamido)-2-ethylcyclohexyl)-5-ethyl-isoxazole-3-carboxamide; (1S,2R,4S) isomer is depicted], the half-maximal inhibitory concentration (IC50) came to 97.3 nM on SMYD3 [1] and 964 nM at SMYD3 [2].

Take `C[C@@H](N)CC(=O)N[C@H]1CC[C@H](NC(=O)c2cc(C3CC3)on2)[C@H](Cc2ccccc2)C1` (mixture of isomers) [Cpd. No. 39, Mixture of N-((1S,2R,4S)-4-((R)-3-aminobutanamido)-2-benzylcyclohexyl)-5-cyclopropylisoxazole-3-carboxamide and N-((1R,2S,4R)-4-((R)-3-aminobutanamido)-2-benzylcyclohexyl)-5-cyclopropylisoxazole-3-carboxamide; (1S,2R,4S) isomer is depicted.]: the figures for the IC50 on SMYD3 [1] and on SMYD3 [2] were 28.6 nM and 255 nM, respectively.

With `O=C(CCN1CCCC1)N[C@H]1CC[C@H](NC(=O)c2cc(C3CC3)on2)CC1` [compound 11, 5-cyclopropyl-N-((1r,4r)-4-(3-(pyrrolidin-1-yl)propanamido)cyclohexyl)isoxazole-3-carboxamide], the IC50 on SMYD3 [1] was determined as 188 nM; against SMYD3 [2], 1970 nM.
